Measured values as given in patent publication US20160193139A1, “Composition having A. paniculata for wound healing and skin whitening, and method by using the same” (National Dong Hua University, priority 2013, published 2016).

Assays:
HaCaT cells = assay: MTT cell viability assay, HaCaT cells; type: cell-based, human; settings: FIG. 1B
Method: (§1) HaCaT cell is an immortal human keratinocyte line (CLS order no. 300493) and A375 cell is a human melanoma cell line (ATCC, CRL-1619) that isolated from malignant melanoma. Both cells were cultured in Dulbecco's Modified Eagle Medium (DMEM; Gibco, Carlsbad, Calif., USA) with 10% fetal bovine serum (FBS; Gibco), and 1% Penicillin/Streptomycin (Biowest) in culture incubator at 37° C., 5% CO2. CCD-966SK is a human skin fibroblast (ATCC, CRL-1881) cell line that taken from the breast of patient with invasive ductal carcinoma and cultured in Minimum Essential Medium (MEM; Gibco) with 10% FBS, 1% sodium pyruvate (Biowest), and 1% Penicillin/Streptomycin (Biowest) in culture incubator at 37° C., 5% CO2.
(§2) The 3-(4,5-dimethylthiazol-2-yl)-2,5-diphenyltetrazolium bromide (MTT, Invitrogen) is a colorimetric based assay that is performed to analyze the proliferation of cells. Cells (1×10^4 cells) were seeded in 96 well plates for overnight. […] The media was removed, and formazan was solubilized by adding 100 of DMSO (Sigma-Aldrich) and absorbance was measured at 570 nm using a microplate reader (Thermo Labsystems, Opsys MR, USA). […]

CCD-966SK cells = assay: MTT cell viability assay, CCD-966SK cells; type: cell-based, human; settings: 50 μg/ml; 24 and 48 h; FIG. 2B
Method: as §1, §2

[1] = system: burn wound on back skin of C57BL/6 mice; assay: Animal skin injury (burn wound) model, wound healing; type: in vivo; settings: for Wound Area: cream spread on burned site once/day, extract and Andrographolide 0.1 mg/ml, Silver sulfadiazine 1%, mean ± SD
Method: These mice were used between 8 to 10 weeks of age and age-matched for each experiment.
A cream matrix containing 1 g polyethylene glycol/poly propylene glycol/poly ethylene glycol (PEG-PPG-PEG; MW=5800; Sigma), 2 ml polyethylene glycol-400 (PEG-400; FCW®, Taiwan), and 3 ml polyethylene glycol-1500 (PEG-1500; FCW®, Taiwan) was formed. The solution of A. paniculata extract and Andrographolide was added into cream matrix and completely mixed (for both of them, the final concentration is 0.1 mg/ml).
Mice were anesthetized by pentobarbital (50 mg/kg) and removed the hair of back. A stainless steel cylinder tool (1 cm in diameter, 0.785 cm^2 cm in area) was heated for 20 sec and attached on back skin of mice for 2 sec. […] The wound area was measured on days 1, 3, 5, 7, 9, 11, 13, 15, 17, 19, and 21 after drug treatment.

A375 cell = assay: MTT cell viability assay, A375 cells; type: cell-based, human; settings: dose-dependent manner; FIG. 5A
Method: as §1, §2

melanin in A375 cells = assay: Melanin assay in A375 cells; type: cell-based, human; settings: after normalization with cell number, dose-dependent manner, FIG. 5B
Method: Cells (1×10^5 cells) were seeded in 12 well plates and treated with drugs for 24 or 48 hr. Plates were washed with PBS and added 0.5 ml of 1N NaOH, and heating at 100° C. for 1 h. Plates were then centrifuged at 12,000 rpm for 30 min at 25° C. Supernatants (100 μl/well) were added into 96 well plates, and the secretion of melanin was determined by measuring the absorbance at 405 nm using microplate reader (Thermo Labsystems).

With C=C1CC[C@@H]2[C@](C)(CO)[C@H](O)CC[C@@]2(C)[C@@H]1C/C=C1/C(=O)OC[C@H]1O [Andrographolide] the “cell viability of HaCaT cells” value (HaCaT cells; 50 μg/ml, 24 and 48 h) was “significantly decreased”, the “cell viability of HaCaT cells” value (HaCaT cells; low doses (1, 5, and 10 μg/ml), 24 h) was “significantly enhanced” and the “cell viability of CCD-966SK cells” value (CCD-966SK cells) was “significantly decreased”. The “wound healing rate compared with silver sulfadiazine-treated mice” value ([1]; 0.1 mg/ml cream once/day vs Silver sulfadiazine 1%, FIG. 3) was “two days earlier”, the “Wound Area” value ([1]; DAY 1) was 133.57 ± 28.46 mm^2 and the “Wound Area” value ([1]; DAY 3) was 111.94 ± 24.09 mm^2. For the same molecule, the “Wound Area” value ([1]; DAY 5) was 85.15 ± 13.35 mm^2, the “Wound Area” value ([1]; DAY 7) was 48.43 ± 5.91 mm^2 and the “Wound Area” value ([1]; DAY 9) was 28.22 ± 9.40 mm^2. The “Wound Area” value ([1]; DAY 11) was 16.46 ± 5.43 mm^2, the “Wound Area” value ([1]; DAY 13) was 11.62 ± 4.49 mm^2 and the “Wound Area” value ([1]; DAY 15) was 6.94 ± 5.04 mm^2. For the same molecule, the “Wound Area” value ([1]; DAY 17) was 4.12 ± 3.96 mm^2, the “Wound Area” value ([1]; DAY 19) was 0 mm^2 and the “Wound Area” value ([1]; DAY 21) was 0 mm^2. For the same molecule, the “cell viability of A375 cell” value (A375 cell) was “significantly inhibited” and the “expression level of melanin” value (melanin in A375 cells) was “significantly inhibited”.
